These results are taken from article PMC5353646, “Allosteric modulation of peroxisomal membrane protein recognition by farnesylation of the peroxisomal import receptor PEX19” (Nature Communications, 2017).

One data set has as its system PEX19 CTD M255R. Put plainly: Fluorescence polarization, ALDP peptide binding to PEX19 CTD M255R. Further details: species or system human. As to conditions: with or without farnesylation, FITC-labelled ALDP peptide 20 nM, triplicate (n = 3). As for the experimental part: (§1) ALDP peptide (62-AAKAGMNRVFLQRLL-76) fused N-terminally with fluorescein isothiocyanate (FITC), was purchased from Peptide Specialty Laboratories GmbH. The lyophilized powder was dissolved in 1 ml water resulting in a 5 mM stock solution. Overnight dialysis against buffer containing 50 mM Tris pH 8.0, 50 mM NaCl, removed trifluoroacetate counterions. For the determination of each binding curve a 12 point titration was performed with constant concentration of 20 nM labelled peptide with increasing concentrations of PEX19 CTD variants. Starting concentration of PEX19 CTD was 1 mM with 12 serial dilutions reaching 0.5 μM. Reaction mixtures were then transferred into 96-well Optiplate and measured as triplicates in PerkinElmer EnVision plate reader. […]
(§2) Supplementary Figure 6: ALDP af finity measurement for PEX19 CTD proteins using a fluorescence polarization assay . Polarization plots as a function of protein concentration for the direct titration of PEX19 non-farnesylated (black) and farnesylated (red) forms (wild type and residue spedific mutants) into fluorescein-labeled ALDP peptide. […]
(§3) (also on this page, place not known: assay. affinity Fluorescence polarization (mP) wt wtfarn Fluorescence polarization (mP) M179Rfarn 0.00 1.00 Fluorescence polarization (mP) M255Rfarn 0.00 1.00 Fluorescence polarization (mP) I195Kfarn Kd Kd /uni03BCM)
A general note: Fluorescence polarisation rises when a labelled molecule tumbles more slowly, as on binding a larger partner.

Data set [1] is described as follows: NMR 13C secondary chemical shifts (peptide conformation). In kind it is physicochemical. The conditions noted are these: C-terminally extended version of the ALDP peptide with additional tryptophan (residue 68 to 82). From the text: Phe71 aromatic ring protons
Residue number Leucine residue
Supplementary Figure 8: Intermolecular NOEs between PEX19 CTD and the ALDP peptide, and secondary structure of the latter. (a) 1H,1H plane of a 3D ω1-filtered, ω2-edited 13C-NOESY-HSQC experiment of farnesylated PEX19 CTD free (black) and bound to the ALDP peptide (red). Methyl and methylene protons of the unlabeled farnesyl group of the PEX19 CTD show NOEs with protons of the isotope-labeled farnesylated PEX19 CTD (black circles). In the presence of also unlabeled ALDP peptide additional intermolecular methyl-methyl and aliphatic-aromatic NOEs are observed (red circles and below). (b) NMR 13C secondary chemical shifts of a C-terminally extended […]
tion. (c) Due to signal overlap, 5 out of 7 spin systems for leucine residues were assigned. Nevertheless, also the leucines residues adopt a helical conformation.
(also on this page, place not known: (Leu75)(Leu76) (Leu81)(Leu82) 5 LeuC Cα- Cβ [p.p.m.] Cα- Cβ [p.p.m.] c ω2 ω1 1H (p.p.m.) ω1 1H (p.p.m.) QDPro273/Pro274 { - - { 5)

In the next data set the test system is PEX19 CTD M179R. The data set can be described thus: Fluorescence polarization, ALDP peptide binding to PEX19 CTD M179R. Further details: species or system human. As to conditions: with or without farnesylation, FITC-labelled ALDP peptide 20 nM, triplicate (n = 3). On the procedure: as §1, §2, §3
A further data set deals with PEX19 CTD I195K. The data set can be described thus: Fluorescence polarization, ALDP peptide binding to PEX19 CTD I195K. As to conditions: with or without farnesylation, FITC-labelled ALDP peptide 20 nM, triplicate (n = 3). More on the design: species or system human. On the procedure:
as §1, §2, §3

The target of data set [2] is T1, farnesylated wild type PEX19 CTD (Homo sapiens, UniProt P40855).
T1 construct: we studied the human PEX19 CTD (residues 161–299) that includes the native C-terminus; hexahistidine (TEV-cleavable) (cleaved yes); made in house; host or cells: Escherichia coli BL21 (DE3); farnesylated in vitro with recombinant S. cerevisiae farnesyl transferase
T1 sequence (P40855 161-299): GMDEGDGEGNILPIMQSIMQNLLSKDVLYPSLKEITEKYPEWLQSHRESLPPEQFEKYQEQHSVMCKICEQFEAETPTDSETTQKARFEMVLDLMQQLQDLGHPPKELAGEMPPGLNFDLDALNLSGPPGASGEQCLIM
Put plainly: Fluorescence polarization, ALDP peptide binding to farnesylated wild type PEX19 CTD. As for the experimental part: as §1, §2
standard deviations for triplicate measurements (n = 3).
as §3

Another data set addresses T2, farnesylated PEX19 CTD (Homo sapiens, UniProt P40855).
T2 construct: we studied the human PEX19 CTD (residues 161–299) that includes the native C-terminus; hexahistidine (TEV-cleavable) (cleaved yes); made in house; host or cells: Escherichia coli BL21 (DE3); farnesylated in vitro with recombinant S. cerevisiae farnesyl transferase
T2 sequence (P40855 161-299): T1 sequence (P40855 161-299)
The data set can be described thus: NMR titration of farnesylated PEX19 CTD with PMP peptides. In kind it is binding. The conditions noted are these: 1H,15N HSQC; 298 K; ALDP at 5 and 10 molar ratio with 100 μM PEX19 CTD; PEX13 at 1:1.5 and 1:0.5 with 50 μM.

Data set [3] has as its target T3, non-farnesylated PEX19 CTD (Homo sapiens, UniProt P40855).
T3 construct: we studied the human PEX19 CTD (residues 161–299) that includes the native C-terminus; hexahistidine (TEV-cleavable) (cleaved yes); made in house; host or cells: Escherichia coli BL21 (DE3)
T3 sequence (P40855 161-299): T1 sequence (P40855 161-299)
Put plainly: NMR titration of non-farnesylated PEX19 CTD with PMP peptides. As to conditions: 100 μM PEX19 CTD; peptide molar ratio up to 10:1; 1H,15N HSQC; 298 K. The class given is binding. As for the experimental part:
Figure 4 NMR analysis of PMP binding to non-farnesylated and farnesylated PEX19 CTD. (a) Comparison of ^1H,^15N HSQC spectra of 100 μM non-farnesylated CTD free (black) and in the presence of 10-fold excess of the ALDP-derived peptide (cyan). (b) Comparison of ^1H,^15N HSQC spectra of 100 μM farnesylated PEX19 CTD free (black) and in the presence of 5 (green) and 10 (red) molar ratio of the ALDP peptide. The grey dashed line indicates the position of additional baseline correction applied to remove noise from DMF signals in the peptide stock solution. (c) Chemical shift perturbation of Met/Ile methyl groups seen in ^1H,^13C HSQC experiments upon increasing concentration of ALDP peptide. […] (d) Quantification of chemical shift perturbation (CSP) of amide and methyl groups with respect to the PEX19 amino acid sequence. […] Grey colour refers to residues, which could not be analysed.
NMR spectra were acquired at 298 K on a Bruker Avance III 600-MHz spectrometer with a TCI cryo-probe head, an Avance III 750-MHz spectrometer with a TXI probe head, or an Avance 900 instrument with a TXI cryo-probe head. Spectra were processed using NMRPipe[31] and analysed with Sparky[32]. […] Backbone and side chain assignments were obtained from HNCA, HNCACB, CBCA(CO)NH, H(C)CH-TOCSY and (H)CCH-TOCSY spectra. ^13C- and ^15N- edited NOESY spectra with a mixing time of 70 ms were recorded to derive distance restraints. […]

Take “AAKAGMNRVFLQRLL [ALDP peptide, peptide, residues 62–76 of human ALDP]”: the “binding to PEX19 CTD M255R” value with PEX19 CTD M255R is “impaired binding”. In addition, in data set [1], the “helical conformation of free peptide” value was “preformed helical conformation”. Moreover, in the data set with PEX19 CTD M179R, the “binding to PEX19 CTD M179R” value is given as “impaired binding”. The “binding to PEX19 CTD I195K” value in the data set with PEX19 CTD I195K is “impaired binding”. Moreover, the “affinity (in words)” value in data set [2] (farnesylated PEX19 CTD) is “micromolar affinity”. In addition, in data set [2] (ratio farnesylated vs non-farnesylated wild type PEX19 CTD), the “increase in affinity upon farnesylation of wild type PEX19 CTD” value is reported as “seven”. In addition, the “NMR chemical shift perturbations / line broadening of farnesylated PEX19 CTD” value at farnesylated PEX19 CTD is given as “distinct chemical shift perturbations”. Besides, the “NMR spectral changes of non-farnesylated PEX19 CTD” value in data set [3] is listed as “no significant spectral changes”.
